# Laboratory results as given in publication PMC8480776, “Selenium Derivatives as Promising Therapy for Chagas Disease: In Vitro and In Vivo Studies” (ACS Infectious Diseases, 2021).
# Where two headings read alike, the source gives them in different places.
# Assays:
# [1] = test system: T. cruzi trypomastigotes, Tulahuen strain; experiment: Screening against bloodstream trypomastigotes, Tulahuen strain; type: cell-based, Trypanosoma cruzi
# [2] = target: T1, human erythrocytes CuZn-SOD (Homo sapiens, UniProt P00441); experiment: SOD enzymatic inhibition, CuZn-SOD; type: biochemical
# T1 construct: commercial copper/zinc superoxide dismutase (Cu/Zn-SOD) from human erythrocytes (Sigma-Aldrich); purchased Sigma-Aldrich; host or cells: human erythrocytes (natural source)
# T1 sequence (P00441 whole entry): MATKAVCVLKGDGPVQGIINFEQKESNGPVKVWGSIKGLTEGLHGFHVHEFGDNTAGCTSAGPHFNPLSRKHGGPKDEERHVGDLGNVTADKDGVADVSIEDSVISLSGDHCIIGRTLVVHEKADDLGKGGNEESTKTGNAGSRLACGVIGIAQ
# [3] = test system: Vero cells infected with T. cruzi Arequipa strain; experiment: Infection rate in Vero cells (infected cells), Arequipa strain; type: cell-based; details: Trypanosoma cruzi, 72 h of treatment
# [4] = test system: T. cruzi amastigotes, Tulahuen strain; experiment: Screening against intracellular amastigotes, Tulahuen strain; type: cell-based, Trypanosoma cruzi
# [5] = type: in vivo, BALB/c mice; details: variation vs control
# Experimental: (§1) Female BALB/c mice aged 10–12 weeks and with a size of 20–24 g were divided into five groups (n = 3 per group): 0, negative control group (uninfected and untreated mice); I, positive control group (infected and untreated mice); II, BZN group (infected mice treated with BZN); III, 26 group (infected mice treated with 26); and IV, 28 group (infected mice treated with 28).
# (§2) The tested selenocompounds and BZN were prepared at 2 mg·mL^–1 in an aqueous suspension vehicle containing 5% (v/v) DMSO and 0.5% (w/v) hydroxypropyl methylcellulose, as previously reported.[52] Compounds (20 mg·kg^–1 per day) were administered for 5 consecutive days (total dosages of 100 mg·kg^–1), and vehicle only was administered in the negative and positive control groups. Treatments began when the infection was confirmed (9 dpi) for acute-phase-treated mice, and when it was established that the animals moved into the chronic phase (100 dpi, for chronic-phase-treated mice; Scheme 1).
# Serum samples obtained from blood in several days post-infection (Scheme 1) were sent to the Biochemical Service (University of Granada) to measure a series of biochemical parameters with the commercial Cromakit using a clinical chemistry analyzer (BS-200, Shenzhen Mindray Biomedical Electronics Co., LTD), as previously described.[41]
# [6] = test system: epimastigotes of T. cruzi Arequipa strain; experiment: Flow cytometry analysis of nucleic acid levels (acridine orange); type: cell-based, Trypanosoma cruzi; details: IC25 concentrations, 72 h
# Vero cells = experiment: Cytotoxicity test on Vero cells; type: cell-based; details: Chlorocebus sabaeus, 48 h + 24 h resazurin, read-out: Toxicity IC50 Vero cell
# [7] = test system: T. cruzi trypomastigotes, Arequipa strain; experiment: Screening against bloodstream trypomastigotes, Arequipa strain; type: cell-based, Trypanosoma cruzi
# T. cruzi Arequipa strain = experiment: In vivo trypanocidal activity on BALB/c mice (acute and chronic Chagas disease); parameters: species or system Trypanosoma cruzi
# Experimental: as §1
# Mice were infected by intraperitoneal injection of 5 × 10^5 BTs of T. cruzi Arequipa strain per mouse in 200 μL PBS.[42] Subsequently, the treatment was intraperitoneally administered (∼200 μL) once daily for 5 consecutive days.
# as §2
# […]. Parasitemia was expressed as parasites·mL^–1.
# Immunosuppression was performed by intraperitoneal injection of three doses of 200 mg·kg^–1 of ISOPAC CP at 3–4 day intervals (Scheme 1), as previously reported.[53] Mice were closely monitored for side effects or for secondary infections due to immunosuppression. Within 7 days after the last CP injection, parasitemia reactivation was determined by counting BTs according the procedure described for parasitemia in the acute phase.[42]
# On 145 dpi, the mice were euthanized using CO2, followed by exsanguination via cardiac puncture, and blood was collected. […]. In addition, spleens were weighed to assess splenomegaly.[42]
# DNA extraction of the post-mortem organs/tissues was performed using Wizard Genomic DNA Purification Kit,[41] and the extracted DNA was subjected to amplification by PCR based on the spliced leader (SL) intergenic region sequence of T. cruzi (for detailed description, see literature reported previously).[55] Finally, the PCR products were resolved by electrophoresis on a 2% agarose gel (containing GelRed nucleic gel stain) for 90 min at 90 V.
# Circulating antibodies in serum against both antigens were quantitatively evaluated in triplicate by the ELISA test in 96-well plates using diluted serum samples (1:80 in PBS), as previously described.[41]
# [8] = test system: T. cruzi trypomastigotes, SN3 strain; experiment: Screening against bloodstream trypomastigotes, SN3 strain; type: cell-based, Trypanosoma cruzi
# [9] = test system: T. cruzi amastigotes, Arequipa strain; experiment: Screening against intracellular amastigotes, Arequipa strain; type: cell-based, Trypanosoma cruzi
# [10] = test system: T. cruzi amastigotes, SN3 strain; experiment: Screening against intracellular amastigotes, SN3 strain; type: cell-based, Trypanosoma cruzi
# Trypanosoma cruzi Fe-SOD = experiment: SOD enzymatic inhibition, Fe-SOD; type: biochemical
# [11] = test system: T. cruzi epimastigotes, Arequipa strain; experiment: Screening against extracellular epimastigotes, Arequipa strain; type: cell-based, Trypanosoma cruzi
# [12] = test system: T. cruzi epimastigotes, SN3 strain; experiment: Screening against extracellular epimastigotes, SN3 strain; type: cell-based, Trypanosoma cruzi
# [13] = test system: T. cruzi epimastigotes, Tulahuen strain; experiment: Screening against extracellular epimastigotes, Tulahuen strain; type: cell-based, Trypanosoma cruzi
# [14] = IC50 Vero cells/IC50 trypomastigotes
# [15] = IC50 Vero cells/IC50 amastigotes
# [16] = treatment in acute phase, 15th dpi (2 days after treatment)
# [17] = treatment in acute phase, necropsy day
# [18] = treatment in chronic phase, 106th dpi (2 days after treatment)
# [19] = treatment in chronic phase, necropsy day
# [20] = 20 mg·kg–1 per day i.p. 5 days from 9 dpi
# [21] = 20 mg·kg–1 per day i.p. 5 days from 100 dpi
# [22] = IC50 Vero cells/IC50 epimastigotes
smiles,measurement,setting,value
N#C[Se]c1ccc(NC(=O)c2ccco2)cc1 [Compound 28],"selectivity index (SI), Tulahuen strain, trypom. forms",[1]; [14],50
same,IC50,"[1]; Trypanosoma cruzi, TULAHUEN, bloodstream trypomastigotes, 24 h + 4 h resazurin, read-out: activity IC50, Tulahuen strain, trypom. forms",1.8 ± 0.2 µM
same,IC50,[2],> 100 µM
same,IC50,[3],19.7 µM
same,"selectivity index (SI), Tulahuen strain, am. forms",[4]; [15],33
same,IC50,"[4]; Trypanosoma cruzi, TULAHUEN, amastigotes in Vero cells, 72 h, read-out: activity IC50, Tulahuen strain, am. forms",2.7 ± 0.3 µM
same,ALP (liver marker),[5]; [16],"+ (+/-, 10-20% increase/decrease over the range)"
same,ALT/GPT (liver marker),[5]; [16],"++ (++/--, 20-30% increase/decrease over the range)"
same,AST/GOT (liver marker),[5]; [16],"++ (++/--, 20-30% increase/decrease over the range)"
same,CK-MB (heart marker),[5]; [16],"++++ (++++/----, ˃ 40% increase/decrease over the range)"
same,LDH (heart marker),[5]; [16],"- (+/-, 10-20% increase/decrease over the range)"
same,Total bilirubin (liver marker),[5]; [16],"++ (++/--, 20-30% increase/decrease over the range)"
same,Urea (kidney marker),[5]; [16],"-- (++/--, 20-30% increase/decrease over the range)"
same,Uric acid (kidney marker),[5]; [16],"---- (++++/----, ˃ 40% increase/decrease over the range)"
same,ALP (liver marker),[5]; [17],"+ (+/-, 10-20% increase/decrease over the range)"
same,ALT/GPT (liver marker),[5]; [17],"++ (++/--, 20-30% increase/decrease over the range)"
same,AST/GOT (liver marker),[5]; [17],"+ (+/-, 10-20% increase/decrease over the range)"
same,CK-MB (heart marker),[5]; [17],"= (=, variation ≤ 10%)"
same,LDH (heart marker),[5]; [17],"= (=, variation ≤ 10%)"
same,Total bilirubin (liver marker),[5]; [17],"= (=, variation ≤ 10%)"
same,Urea (kidney marker),[5]; [17],"= (=, variation ≤ 10%)"
same,Uric acid (kidney marker),[5]; [17],"- (+/-, 10-20% increase/decrease over the range)"
same,ALP (liver marker),[5]; [18],"+ (+/-, 10-20% increase/decrease over the range)"
same,ALT/GPT (liver marker),[5]; [18],"+ (+/-, 10-20% increase/decrease over the range)"
same,AST/GOT (liver marker),[5]; [18],"= (=, variation ≤ 10%)"
same,CK-MB (heart marker),[5]; [18],"++ (++/--, 20-30% increase/decrease over the range)"
same,LDH (heart marker),[5]; [18],"= (=, variation ≤ 10%)"
same,Total bilirubin (liver marker),[5]; [18],"= (=, variation ≤ 10%)"
same,Urea (kidney marker),[5]; [18],"= (=, variation ≤ 10%)"
same,Uric acid (kidney marker),[5]; [18],"= (=, variation ≤ 10%)"
same,ALP (liver marker),[5]; [19],"= (=, variation ≤ 10%)"
same,ALT/GPT (liver marker),[5]; [19],"= (=, variation ≤ 10%)"
same,AST/GOT (liver marker),[5]; [19],"+ (+/-, 10-20% increase/decrease over the range)"
same,CK-MB (heart marker),[5]; [19],"+ (+/-, 10-20% increase/decrease over the range)"
same,LDH (heart marker),[5]; [19],"= (=, variation ≤ 10%)"
same,Total bilirubin (liver marker),[5]; [19],"= (=, variation ≤ 10%)"
same,Urea (kidney marker),[5]; [19],"= (=, variation ≤ 10%)"
same,Uric acid (kidney marker),[5]; [19],"= (=, variation ≤ 10%)"
same,inhibition of nucleic acid levels,[6],62%
same,CC50,Vero cells,89.3 ± 7.5 µM
same,"selectivity index (SI), Arequipa strain, trypom. forms",[7]; [14],50
same,IC50,"[7]; Trypanosoma cruzi, bloodstream trypomastigotes, 24 h + 4 h resazurin, read-out: activity IC50, Arequipa strain, trypom. forms",1.8 ± 0.1 µM
same,"anti-T. cruzi IgG levels (ELISA), acute phase treatment",T. cruzi Arequipa strain; [20],lower IgG values than the treated with BZN at the beginning of the treatment
same,"splenomegaly reduction in comparison with untreated mice, acute phase treatment",T. cruzi Arequipa strain; [20],37%
same,"parasitaemia reactivation after immunosuppression, acute phase treatment","T. cruzi Arequipa strain; 20 mg·kg–1 per day i.p. 5 days from 9 dpi, compared to untreated group",approximately 95%
same,"anti-T. cruzi IgG levels (ELISA), chronic phase treatment",T. cruzi Arequipa strain; [21],similar
same,"splenomegaly reduction in comparison with untreated mice, chronic phase treatment",T. cruzi Arequipa strain; [21],48%
same,"parasitaemia reactivation after immunosuppression, chronic phase treatment","T. cruzi Arequipa strain; 20 mg·kg–1 per day i.p. 5 days from 100 dpi, compared to untreated group",~85%
same,parasite levels in target organs/tissues by PCR (in words),"T. cruzi Arequipa strain; 20 mg·kg–1 per day i.p. 5 days, necropsy 145 dpi",did not decrease enough parasite levels in the analyzed tissues
same,parasitaemia profile during the acute phase,T. cruzi Arequipa strain; 20 mg·kg–1 per day i.p. for 5 days from 9 dpi,slight antiparasitic activity over the first month
same,"selectivity index (SI), SN3 strain, trypom. forms",[8]; [14],53
same,IC50,"[8]; Trypanosoma cruzi, bloodstream trypomastigotes, 24 h + 4 h resazurin, read-out: activity IC50, SN3 strain, trypom. forms",1.7 ± 0.2 µM
same,"selectivity index (SI), Arequipa strain, am. forms",[9]; [15],28
same,IC50,"[9]; Trypanosoma cruzi, amastigotes in Vero cells, 72 h, read-out: activity IC50, Arequipa strain, am. forms",3.2 ± 0.4 µM
same,"selectivity index (SI), SN3 strain, am. forms",[10]; [15],53
same,IC50,"[10]; Trypanosoma cruzi, amastigotes in Vero cells, 72 h, read-out: activity IC50, SN3 strain, am. forms",1.7 ± 0.4 µM
same,IC50,Trypanosoma cruzi Fe-SOD,9.4 µM
same,"Selectivity index (SI), epimastigotes, Arequipa strain",[11]; [22],19
same,IC50,"[11]; Trypanosoma cruzi, 48 h + 24 h resazurin, read-out: Activity IC50, epimastigote form, Arequipa strain",4.8 ± 0.4 µM
same,"Selectivity index (SI), epimastigotes, SN3 strain",[12]; [22],24
same,IC50,"[12]; Trypanosoma cruzi, 48 h + 24 h resazurin, read-out: Activity IC50, epimastigote form, SN3 strain",3.8 ± 0.4 µM
same,"Selectivity index (SI), epimastigotes, Tulahuen strain",[13]; [22],19
same,IC50,"[13]; Trypanosoma cruzi, TULAHUEN, 48 h + 24 h resazurin, read-out: Activity IC50, epimastigote form, Tulahuen strain",4.6 ± 0.3 µM
